# From paper PMC3549563 (Journal of Neurochemistry, 2012)
# Target: T1, ACR-16 (Caenorhabditis elegans, UniProt P48180)
# T1 sequence (P48180 20-498): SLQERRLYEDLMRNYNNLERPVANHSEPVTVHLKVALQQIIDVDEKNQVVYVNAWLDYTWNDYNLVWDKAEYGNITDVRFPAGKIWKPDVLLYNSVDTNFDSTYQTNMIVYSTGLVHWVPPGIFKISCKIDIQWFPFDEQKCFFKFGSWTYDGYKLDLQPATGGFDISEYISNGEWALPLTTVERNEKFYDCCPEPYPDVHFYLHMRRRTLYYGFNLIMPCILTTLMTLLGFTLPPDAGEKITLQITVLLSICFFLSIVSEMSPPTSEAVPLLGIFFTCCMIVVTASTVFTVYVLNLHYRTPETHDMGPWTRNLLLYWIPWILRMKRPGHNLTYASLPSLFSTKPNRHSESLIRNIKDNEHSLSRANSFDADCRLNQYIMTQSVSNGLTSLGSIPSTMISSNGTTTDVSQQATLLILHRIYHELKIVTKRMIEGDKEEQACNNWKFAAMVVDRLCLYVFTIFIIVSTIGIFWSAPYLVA
# Experiment: two-electrode voltage clamp, Xenopus oocytes, peak current
# Type: cell-based
row,Structure (SMILES),EC50
1,CC(=O)OCC[N+](C)(C)C [acetylcholine],24 µM
2,CN1CCC[C@H]1c1cccnc1 [nicotine],22 µM
